From patent US10597649B2, “Tau protease compositions and methods of use” (Oligomerix, Inc., priority 2011, dated 2020)

What was measured:
Type in all cases: biochemical
[1] = test system: Human APP 667-676 peptide; test: Cleavage of APP 667-676 peptide (HPLC); conditions: 20 hr at 37° C.
Method: Human APP 667-676 peptide [[…](SEQ ID NO:14) (Anaspec, Fremont, Calif., USA)] was incubated 20 hr at 37° C. with or without […] tau 4R2N trimer protease and analyzed by reverse phase HPLC (SystemGold® 32Karat™ LC-CE System, Beckman Coulter, Inc.) using a linear gradient of 0 to 60% acetonitrile in 0.1% TFA on an analytical C18 column (12.5 cm×2.1 mm, […], Supelco). […] The asterisk indicates an artifactual peak unrelated to the peptide. Tau 4R2N trimer protease cut APP at the penultimate amino acid adjacent to the β-secretase (BACE) cut site thereby generating Aβ(1-42). Tau protease activity has been observed extracellularly in the CSF. Generation of Aβ(1-42) can stimulate inflammation within a neuron leading to BACE up-regulation. Furthermore Aβ(1-42) has been observed in plaques and can be converted to Aβ(1-42) by BACE cleavage of the N-terminal methionine. The implications are that tau protease may be the initial activation step for the amyloid cascade;

[2] = test system: Human α-endorphin peptide; test: Cleavage of α-endorphin peptide (HPLC); conditions: 20 hrs at 37° C.
Method: Human α-endorphin peptide [[…](SEQ ID NO:13) (Abbiotech, LLC, San Diego, Calif., USA)] was incubated at 37° C. for 20 hrs with or without […] tau 4R2N trimer protease, and analyzed by reverse phase HPLC (SystemGold® 32Karat™ LC-CE System, Beckman Coulter, Inc., Indianapolis, Ind., USA) using a linear gradient of acetonitrile in 0.1% TFA, 0-60% acetonitrile on an analytical C18 column (12.5 cm×2.1 mm, 5 μm (Supelco). The peptide was hypothesized to be cut by tau protease because it contains Lys-Ser in its sequence which is found at autocatalytic cleavage sites in tau. Two fragment peaks were produced as predicted by tau 4R2N trimer protease. […] The asterisk indicates an artifactual peak unrelated to the peptide;
12 μg of α-endorphin peptide (Anaspec, Fremont, Calif.) was incubated with 1.2 μg of tau 4R/2N trimer in reaction buffer (25 mM Tris-HCl pH 7.4) for 20 hrs at 37° C. Reverse phase HPLC was used to monitor the cleavage of the peptide. […] The asterisk indicates an artifact peak that is derived from the incubation tube.

tubulin = test: Cleavage of tubulin by tau 4R2N trimer (SDS-PAGE); conditions: 19.25 hrs at 37° C.
Method: In a result not shown, tau 4R2N trimer cut tubulin. In that study, Lane 1—tubulin, no incubation; Lane 2—tubulin incubated without tau; Lane 3—tubulin with tau 4R/2N trimer, no incubation; Lane 4—tubulin incubated with tau 4R2N trimer. […] Incubation of tubulin with tau4R2N trimer led to the formation of tubulin fragments and degradation of tubulin dimer.
Lyophilized tubulin (Cat# TL238, Cytoskeleton Inc.) was suspended in 200 μL buffer for 6 mg/mL solution. Samples were incubated for 19.25 hrs at 37° C. 10 μL 2× Laemmli sample buffer (BME) was added to each sample. Samples heated at 95° C. for 5 min in a thermal cycler with heated lid 5 min prior to loading.

Tau 4R2N = biological target: T1, Tau 4R2N (Homo sapiens, UniProt P10636); test: Autoproteolytic activity of purified tau monomer, dimer and trimer (SDS-PAGE)
T1 construct: Stabilization buffer enables production of full length monomer, dimer and trimer for tau protease; made in house; host or cells: E. coli BL21 (DE3) Gold
Method: This example describes the identification of the autoproteolytic activity of tau oligomers.
Purified recombinant human tau 4R2N was prepared as described in the flow chart. Monomer, dimer and trimer species were purified preparative electrophoresis from a tau 4R2N preparation that had formed oligomers. The electrophoresis buffer contained 0.1% SDS which inhibited the proteolytic activity. Fractions containing the tau species were buffer exchanged into 25 mM Tris-HCl pH 7.4 using and Amicon ultrafiltration device (Merck Millipore, Billerica, Mass.), which led to restoration of tau autoproteolytic activity. Protein concentrations of the preparations were determined using the BCA kit (ThemoFisher Scientific). Samples were run on a pre-cast 4-20% polyacrylamide Tris-HCl gel (BioRad, Hercules, Calif.) without using reductant in order to visualize the disulfide mediated oligomers. The gel was stained with GelCodeBlue Safe (ThermoFisher Scientific, Rockford, Ill.). Lane 1: 5.2 μg of tau 4R2N oligomer standard; Lane 2: 2 microliter of monomer fraction before buffer exchange; Lane 3: 0.5 μg monomer after buffer exchange; Lane 4: […] of dimer fraction before buffer exchange; Lane 5: 0.5 μg dimer after buffer exchange; Lane 6: 20 μL trimer fraction before buffer exchange; Lane 7: 0.5 μg trimer after buffer exchange.
Tau 4R2N undergoes autoproteolytic cleavage (self-cleavage) when it forms disulfide-mediated oligomers upon incubation. Tau autoproteolyic activity co-purified with the dimer and trimer species. The amount of autoproteolytic activity was greatest with trimer which fragmented to the extent where no full size trimer remained after incubation. […] It was also shown that Tau autoproteolytic activity co-purified with dimer and trimer species. […] Full-length trimer digested completely into smaller fragments, and upon incubation, monomer formed an oligomeric ladder that produced a low level of autoproteolytic activity.
(§1) Monomer, Dimer, and Trimer of Tau 441 were purified under non-reducing conditions using continuous-elution electrophoresis. Fractions of each oligomer sample were pooled and buffer exchanged into stabilization buffer using an Amicon spin concentrator with a molecular weight cut-off of 30,000 daltons. 0.35 μg of each sample was incubated overnight at 37° C. while non-incubated control was kept on ice at 4° C. Next day, 2×SDS sample buffer without reductant was added to each sample and loaded onto a 4-20% gradient Tris-HCl Criterion Gel (Bio-Rad, Hercules, Calif.).
as §1, with “This example presents results from a contamination control study of tau protease. Monomer,” for “Monomer,”, “2× sodium dodecyl sulfate” for “2×SDS”
Lane 1—tau oligomer ladder standard; Lane 2—empty; Lane 3—purified monomer no incubation (fraction from purification plate); Lane 4—purified monomer without incubation; Lane 5—purified monomer with incubation; Lane 6—purified dimer without incubation; Lane 7—purified dimer with incubation; Lane 8—purified trimer without incubation; purified trimer with incubation overnight at 37° C. Lanes 3-9 were treated with sample buffer containing β-mercaptoethanol (BME).

T1 sequence (P10636 1-441 isoform P10636-8): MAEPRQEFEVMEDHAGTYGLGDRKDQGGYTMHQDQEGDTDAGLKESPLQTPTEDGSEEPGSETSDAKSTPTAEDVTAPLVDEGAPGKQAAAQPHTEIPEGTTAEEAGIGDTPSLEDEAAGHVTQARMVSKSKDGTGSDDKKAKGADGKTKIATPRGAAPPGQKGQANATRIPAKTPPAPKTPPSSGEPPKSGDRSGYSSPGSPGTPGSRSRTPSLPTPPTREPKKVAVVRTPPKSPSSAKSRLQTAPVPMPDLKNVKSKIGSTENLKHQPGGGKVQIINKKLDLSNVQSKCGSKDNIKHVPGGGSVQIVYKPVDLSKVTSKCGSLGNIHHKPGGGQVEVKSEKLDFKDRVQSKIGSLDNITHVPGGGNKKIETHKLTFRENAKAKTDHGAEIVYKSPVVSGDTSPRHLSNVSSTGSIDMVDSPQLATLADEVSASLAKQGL

tau 4R2N trimer: purified disulfide-mediated trimer species of recombinant human tau 4R2N
cutting of APP 667-676 peptide [1]: cuts APP 667-676 peptide | cutting of α-endorphin peptide [2]: cuts α-endorphin peptide | cutting of tubulin (tubulin): cut tubulin | degradation in contamination control study (Example 3) (Tau 4R2N; 0.35 μg, overnight at 37° C., equal sample volumes from purification): preferentially degraded | autoproteolytic activity (Example 1) (Tau 4R2N; after buffer exchange into 25 mM Tris-HCl pH 7.4, incubation at 37° C.): greatest
